Assays:
[1] = test system: DNMT1, DNMT3A, and DNMT3B; assay: Immunoblotting of DNA methyltransferases (DNMTs); format: cell-based, human; details: breast cancer cell lines
Method: (§1) Following treatments, cells were washed with cold PBS and lysed in 1× Laemmli buffer. The protein concentrations in the cell lysates were measured using Pierce BCA protein assay Kit (ThermoFisher). The same amount protein for each sample (20-50 μg/lane) was loaded to SDS-PAGE gel, followed by transferring proteins to a 0.2 μm nitrocellulose membrane (Bio-Rad Laboratories). Membranes were blocked with blocking buffer Blocker Casein in PBS (ThermoFisher) at room temperature for 1 hour, followed by immunoblotting with the primary antibodies in 5% BSA TBST buffer at room temperature overnight. After washing with TBST buffer, the immunoblotting membrane was then probed with the secondary antibodies with fluorescence conjugation. The immunoblots were visualized and the immunoblotting signal intensity quantitated using the Odyssey IR imaging system (Li-Cor Biosciences).

TROP2 [2] = assay: Immunoblotting of TROP2 protein in breast cancer cell lines; format: cell-based, human
Method: as §1
Five cell lines (BCX-011, BCX-010, Sum-159, BCX-010 transfected with control shRNA, and BCX-010 transfected with Zeb1 shRNA) were treated with decitabine (a DNA methyltransferase inhibitor) at 1 μM for 3 days (FIG. 1B). To knockdown Zeb1, BCX-010 cells were transduced with a lentivirus containing Zeb1 shRNA, followed by puromycin selection.
(§2) Breast cancer cell lines BCX-010CL, BCX-011CL, and SUM159 cells were treated with decitabine, azacytidine, panobinostat, vorinostat, tazemetostat at […] respectively for 3 days, followed by immunoblotting for E-cad and TROP2 with β-actin as control (FIG. 1D).
(§3) The treated cells were lysed. The cell lysate samples were loaded onto SDS-PAGE gel for the western blot. Antibodies ab-214488 and cst-3195 were used to detect TROP2 and E-cadherin respectively. β-actin was used as loading control (FIG. 1C).

Sum-159 cells = assay: Colony formation assay, Sum-159; format: cell-based, human; details: sacituzumab govitecan 200 nM, decitabine 200 nM
Method: FIGS. 6A-6E show a colony assay of BCX-010 (FIGS. 6A-6B), BCX-011 (FIG. 6C-6D), and Sum-159 cells ([…]) after treatment with vehicle, sacituzumab govitecan (200 nM), and/or decitabine (200 nM) for 10 days. FIGS. 6A-6C show agar plates after 10 days of colony formation.
In order to determine the effect of decitabine treatment on sacituzumab govitecan activity, colony formation assays were performed in BCX-010 cells (FIGS. 6A-6B), BCX-011 cells (FIG. 6C-6D), and Sum-159 breast cancer cells (FIG. 6E-6F).
Cells were seeded in 6-well plates at a density of 1000 cells per well in triplicates for each treatment group. Next day, cells were treated with single drugs, or combination at the different concentrations. Culture medium was changed with fresh drugs twice a week. Cells were cultured for 3 weeks. Cell colonies were then fixed in 10% formalin and stained with 0.05% crystal violet in 25% methanol. The stained colonies were imaged and total colony area was quantitated using NIH ImageJ v.1.48 software. Effect-based Combination Index (CI) was calculated by inhibition percentage of single drug and combination treatments using Bliss combination model. CI=((EA+EB)−(EA*EB))/EAB, where EA, EB, and EAB are effects of drug A, B and combination AB inhibition percentage. Here the effect is inhibition percentage of colony formation compared to vehicle controls. […]

TROP2 promoter = assay: Methylation-specific PCR of TROP2 promoter CpG region; details: BCX-010 cells; decitabine 1 μM; FIG. 3A
Method: Genomic DNA was extracted from BCX-010CL and BCX-011CL cells treated decitabine at 1 μM for 3 days, or from ZEB1 knockdown cells, and then subjected bisulfite CT conversion, followed by MSP using methylation specific primers specific to a CpG region in the TROP2 promoter. GAPDH was used as a control.
Following treatments, cells were lysed and genomic DNA (gDNA) was extracted using Genomic DNA Purification Kit (ThermoFisher) according to manufacturer's manual. Bisulfite CT conversion of quantitated gDNA was performed using EZ DNA Methylation Kit (Zymo Research) following manufacturer's manual. MSP of TROP2 promoter CpG region was performed using a methylation forward primer, a methylation reverse primer, an un-methylated forward primer, and an un-methylated reverse primer. PCR condition was set up as following: 94° C., 1 minute; [94° C., 30 seconds, 62° C., 30 seconds, 72° C., 45 seconds]×40 cycles; 72° C., 2 minutes, 4° C. About 200 bp PCR product was separated by 2% agarose gel.

BCX-010 cells = assay: Colony formation assay, BCX-010 control and Zeb1 knockdown; format: cell-based, human; details: BCX-010 control and Zeb1 knockdown cells; decitabine 5 nM, sacituzumab govitecan 20 nM, 14 days
Method: FIGS. 7A-7B show a colony assay of BCX-010 cells transfected with control shRNA (FIG. 7A) or Zeb1 shRNA (FIG. 7B) after treatment with vehicle, sacituzumab govitecan (20 nM), and/or decitabine (5 nM) for 14 days. After 14 days, cell colonies formed on the plates, were fixed with 10% formalin, and stained with 0.05% crystal violet. […] Annexin V positive apoptotic cells were measured by flow cytometry. Percentage of apoptotic cells over total cell populations was calculated.
In order to determine the effect of decitabine and/or Zeb1 knockdown treatment on sacituzumab govitecan activity, colony formation assays were performed in BCX-010 breast cancer cells. BCX-010 cells (control and Zeb1 knockdown) were seeded into 6-well plates at 1000 cells/well. Cells were treated with decitabine (5 nM) and/or sacituzumab govitecan ([…]) for 14 days. Culture medium with replaced with culture medium containing fresh drugs twice. After 14 days, cell colonies form on the plates were fixed with 10% formalin and stained with 0.05% crystal violet. Total colony area and colony number were quantified using ImageJ software.

SLFN11 = assay: Immunoblotting of SLFN11 in breast cancer cell lines; format: cell-based, human; details: BCX-010CL, HCC-1937, HCC-1143, MDA-MB-157; 1 μM for 3 days; FIG. 10A
Method: as §1

[3] = test system: BCX-010CL, HCC-1954, HCC-1143, and MDA-MB-157 cells; assay: Cell survival assay of Sacituzumab govitecan with or without decitabine; format: cell-based, human; details: HCC-1954, HCC-1143, MDA-MB-157, decitabine co-treatment, 3 days, FIG. 10C
Method: BCX-010CL, HCC-1954, HCC-1143, and MDA-MB-157 cells were treated with Sacituzumab govitecan at serial dilutions, with or without decitabine co-treatment for 3 days. IC50s of individual agents and combination index were calculated.
Finally, BCX-010CL, HCC-1954, HCC-1143, and MDA-MB-157 cells were treated with Sacituzumab govitecan at serial dilutions, with or without decitabine co-treatment for 3 days. IC50s of individual agents and combination index were calculated.

TROP2 mRNA = assay: Quantitative RT-PCR of TROP2 mRNA; format: cell-based, human; details: decitabine 1 μM, three days; BCX-010 (control or Zeb1 shRNA) and Sum-159 cells
Method: Following treatments, cells were lysed and total RNA was extracted using GeneJet RNA Purification Kit (ThermoFisher) according to manufacturer's manual. cDNA was synthesized from RNA using High-Capacity RNA-to-cDNA Kit (ThermoFisher) following manufacturer's manual. DNA amount in cDNA samples were quantitated using Qubity dsDNA Kit (ThermoFisher). Real time PCR was performed with the same amount DNA from each sample using TaqMan Universal PCR Master Mix Kit (ThermoFisher), under the PCR conditions: 50° C., 2 minutes; 95° C., 10 minutes; [95° C., 15 seconds, 60° C., 1 minutes]×35 cycles. Fold changes of mRNA expression levels were calculated using formula 2^rrCT (rrCT: cycle threshold of treatment group-cycle threshold of control group).
BCX-010 cells (FIG. 2A) and Sum-159 cells (FIG. 2B) were treated decitabine (1 μM), panobinostat (20 nM), or DMSO for three days. Total RNA was extracted from the treated cells using GeneJet RNA kit, followed by reverse transcription using High Capacity RNA-to-cDNA kit. cDNAs were quantitated using Qubit DNA kit. Quantitative real time PCR (qPCR) was performed using Taqman Universal PCR Master Mix kit with a TROP2 probe. Relative TROP2 levels were obtained by normalization with GAPDH. Additionally, BCX-010CL cells were treated with shRNA control or ZEB1 shRNA (FIG. 2C).

TROP2 [4] = assay: Immunocytochemistry of TROP2 in SUM159 cells; format: cell-based, human; details: 1 μM for 3 days
Method: SUM159 cells were treated with decitabine at 1 μM for 3 days. After cell fixation, cell pellet blocks were processed and probed with anti-TROP2 antibody, followed by hematoxylin staining.
After cell fixation, cell pellet blocks were processed and probed with anti-TROP2 antibody, followed by hematoxylin staining (FIG. 2D).
Formalin-fixed paraffin-embedded (FFPE) cell lines/tissue of 4-micron thickness slides were baked at 60° C. for 1 hour. IHC staining was performed using Leica BondRXm autostainer (Leica Biosystems) for further processing. In brief, after deparaffinized by bond dewax solution, epitope retrieval (HIER) was performed with citrate buffer pH6, followed by washing steps. After peroxidase blocking (3% H2O2) for 20 minutes, slides were incubated in TROP2 rabbit monoclonal [EPR20043], catalog #ab214488 with a 1:2000 dilution for 15 minutes at ambient temperature. After transient washing, post-primary and polymer incubation for 8 min, followed by hematoxylin staining and wash steps. Afterwards, the slides were unloaded from autostainer, air dried and cover slipped with mounting media (Cytoseal XYL mounting media).

E-cadherin = assay: Immunoblotting of E-cadherin in breast cancer cell lines; format: cell-based, human; details: BCX-010CL cells
Method: as §1, §2, §3

[5] = test system: BCX-010, BCX-011 and Sum-159 cells; assay: Annexin V flow cytometry apoptosis assay; format: cell-based, human; details: decitabine 1 μM and/or sacituzumab govitecan 0.1 μM, three days; FIGS. 5A-5D
Method: In order to determine the effect of decitabine and/or Zeb1 knockdown treatment on sacituzumab govitecan activity, apoptosis was measured in breast cancer cell lines. BCX-010 cells (FIG. 5A and FIG. 5B), BCX-011 cells (FIG. 5C) and Sum-159 cells (FIG. 5D) were seeded in 6-cm plates, then treated with decitabine (1 μM) and/or sacituzumab govitecan (0.1 μM) for three days in an apoptosis assay. After the three day treatment, cells were stained with Annexin V. Flow cytometry was performed to sort Annexin V positive cells (apoptotic cells) (FIGS. 5A-5D). Percentage of apoptotic cells was calculated by Annexin V positive cells over total cell populations.
Cells were seeded in 6 cm plates at a density of 3×10^5 cells per well in triplicates for each treatment group. The following day, cells were treated with decitabine and SG at 1 μM and 0.1 μM respectively, or their combination. […] Using Annexin-V-FLUOS Staining Kit (Roche), cells were stained with Annexin V fluorescence and propidium iodide (PI), following manufacturer's protocol. Samples were analyzed by flow cytometry. Percentage of Annexin V positive apoptotic cells were calculated.
In apoptosis assay, cells were treated with decitabine at 1 μM, SG at 0.1 μM, or their combination for 3 days. Annexin V positive apoptotic cells were measured by flow cytometry. Percentage of apoptotic cells over total cell populations was calculated (FIG. 7D).

BCX-010CL cells = assay: Cell survival assay of SN-38 with or without decitabine; format: cell-based, human; details: decitabine co-treatment, 3 days, FIG. 10B
Method: BCX-010CL cells were treated with SN-38 at serial dilutions, with or without decitabine co-treatment for 3 days. IC50s of individual agents and combination index were calculated.
BCX-010CL cells were also treated with SN-38 at serial dilutions, with or without decitabine co-treatment for 3 days. IC50s of individual agents and combination index were calculated.

[6] = test system: BCX-010CL and BCX-011CL cells; assay: Cell survival assay of SG in TROP2-overexpressing cells; format: cell-based, human; details: serial dilutions, 3 days, FIG. 8B
Method: TROP2-overexpressing cells and control cells were treated with SG at concentrations in serial dilutions for 3 days. SG IC50 was calculated.
For TROP2 overexpression, breast cancer cells seeded in 6-well plates were transfected with TROP2 expression plasmid pCMV6-entry-TROP2 using Lipofectamine 3000 Kit. Two days after transfection, cells were treated with G-418 for 2-3 passages.
After G-418 selection, immunoblotting was performed to detect TROP2 expression (FIG. 8A). Next, TROP2-overexpressing cells and control cells were treated with SG at concentrations in serial dilutions for 3 days. SG IC50 was calculated (FIG. 8B).

[7] = biological target: T1, TROP2 (Trophoblast cell surface antigen 2) (human, UniProt P09758 27-323); assay: immunofluorescence microscopy, SG-Alexa-488 at 2 ug/ml on BCX cells overexpressing TROP2; signal similar to that on MDA-MB-468 cells with high endogenous TROP2
T1 construct: whole, on cells; also called TACSTD2; tumor-associated calcium signal transducer 2
T1 sequence (looked up): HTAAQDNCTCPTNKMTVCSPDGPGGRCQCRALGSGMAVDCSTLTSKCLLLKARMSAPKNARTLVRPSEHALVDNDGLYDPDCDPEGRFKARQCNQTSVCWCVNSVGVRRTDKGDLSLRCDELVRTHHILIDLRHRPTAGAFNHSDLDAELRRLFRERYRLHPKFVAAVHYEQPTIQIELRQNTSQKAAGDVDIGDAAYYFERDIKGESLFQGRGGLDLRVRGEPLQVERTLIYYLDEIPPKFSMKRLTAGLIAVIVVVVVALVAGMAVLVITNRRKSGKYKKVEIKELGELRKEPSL

[8] = biological target: T1, TROP2 (Trophoblast cell surface antigen …); assay: conclusion drawn from the examples' data (immunofluorescence, cell assays)
[9] = test system: TROP2 overexpressing cells; assay: Immunofluorescence of ADC binding on cell membrane; format: cell-based, human; details: 2 μg/ml, 2 hours, room temperature; FIG. 12A
Method: ADC drug SG was labeled with alexa fluorescent dye using Alexa Fluo 488 Conjugation Lightening Kit (Abcam, #ab236553), following the manufactory protocol. Final SG-Alexa-488 concentration was 1 μg/μl. To bind ADC to cells, cells were seeded on cover slices in 6-well plates overnight, followed by blocking with 3% BSA/PBS at room temperature for 1 hour. Then cells were incubated with SG-Alexa-488 at 2 μg/ml at room temperature for 2 hours, followed by PBS wash twice. For internalization assay, SG-Alexa-488 was added into the culture medium in the wells at 2 μg/ml for 10 min, 3 hours, and 24 hours. Cells were fixed with 4% paraformaldehyde at room temperature for 15 min, PBS wash twice. The cover slices were mounted onto slide with DAPI counterstaining. Fluorescence on cell surface and in cytoplasm was monitored using Olympus BX51 fluorescent microscope and imaged using Nuance imaging system.

Molecule: CCc1c(C#N)c(SC(C(N)=O)c2ccccc2)nc(N2CCC(N)CC2)c1C#N (centres unmarked) [GSK-3685032]
- DNMT1 protein levels [1]: decreased DNMT1 protein levels
- TROP2 expression (DNMT1 specific inhibitor) (TROP2 [2]; breast cancer cell lines): did not upregulate TROP2 expression

Molecule: Nc1ncn([C@H]2C[C@H](O)[C@@H](CO)O2)c(=O)n1 [decitabine, 5-Aza-2′-deoxycytidine]
- protein levels of DNMT1, DNMT3A, and DNMT3B ([1]; 1 μM for 3 days, FIG. 3B): decreased protein levels of three DNMT isoforms
- colony formation (Sum-159 cells): inhibited cell colony formation in Sum-159 cells
- TROP2 promoter methylation (MSP) (TROP2 promoter): decreased TROP2 promoter methylation
- colony formation (BCX-010 cells): inhibited cell colony formation
- SLFN11 expression (immunoblot) (SLFN11): increases SLFN11 expression
- TROP2 protein expression (TROP2 [2]; 1 μM for 3 days, BCX-011, BCX-010, Sum-159, BCX-010 control shRNA, BCX-010 Zeb1 shRNA, FIG. 1B): increased TROP2 protein expression in all 5 cell lines
- TROP2 expression, panel of epigenetic modulators (immunoblot) (TROP2 [2]; BCX-010CL, BCX-011CL, SUM159 cells, 3 days, FIG. 1D): most effective enhancer of TROP2 expression
- sensitization of cells to Sacituzumab govitecan (cell survival) [3]: sensitizes cells to Sacituzumab govitecan in breast cancer cell lines
- TROP2 mRNA expression (qPCR, normalized with GAPDH) (TROP2 mRNA): increased TROP2 mRNA expression in all cell lines
- TROP2 expression (immunocytochemistry) (TROP2 [4]): increases TROP2 expression in SUM159 cells
- E-cadherin expression (E-cadherin): increased E-cadherin expression
- apoptosis (Annexin V positive cells) [5]: induced cell apoptosis in BCX-010 and Sum-159 cells
- sensitization of cells to SN-38 (cell survival) (BCX-010CL cells): sensitizes cells to SN-38 in BCX-010CL cells

Molecule: sacituzumab govitecan
- cell sensitivity to SG (IC50) in TROP2-overexpressing vs control cells [6]: Overexpression of TROP2 sensitizes cells
- colony formation (Sum-159 cells): inhibited cell colony formation in Sum-159 cells
- colony formation (BCX-010 cells): inhibited cell colony formation
- apoptosis (Annexin V positive cells) [5]: induced cell apoptosis in BCX-010 and Sum-159 cells

B1: sacituzumab govitecan-Alexa-488 (antibody, V domains shown)
VH: QVQLQQSGSELKKPGASVKVSCKASGYTFTNYGMNWVKQAPGQGLKWMGWINTYTGEPTYTDDFKGRFAFSLDTSVSTAYLQISSLKADDTAVYFCARGGFGSSYWYFDVWGQGSLVTVSS
VL: DIQLTQSPSSLSASVGDRVSITCKASQDVSIAVAWYQQKPGKAPKLLIYSASYRYTGVPDRFSGSGSGTDFTLTISSLQPEDFAVYYCQQHYITPLTFGAGTKVEIK
modifications: conjugated to SN-38 (antibody drug conjugate) and labelled with Alexa Fluor 488; sites not stated
- binding result [7]: binds

B2: sacituzumab govitecan (antibody, V domains shown)
VH: B1 VH
VL: B1 VL
modifications: conjugated to SN-38 (antibody drug conjugate); sites not stated
notes: also called SG; Trodelvy
- binding result [8]: binds

B3: SG ADC labeled with Alexa-Fluo-488 (conjugate)
VH: B1 VH
VL: B1 VL
- immunofluorescent signal on cell membrane, TROP2-overexpressing cells [9]: strong immunofluorescent signal on cell membrane
- immunofluorescent signal on cell membrane, control cells [9]: negative signal

From patent US20250152731A1, “ANTI-TROP2 ANTIBODY COMBINATION THERAPIES AND METHODS OF USE THEREOF” (priority 2021, published 2025)
